The target of assay [1] is human P2X3 receptor (Homo sapiens (Human), UniProt P56373). The experiment in a line: Intracellular calcium measurement (FLIPR, Fluo-4) of antagonist activity at human P2X3 receptors. It counts as cell-based. The conditions noted are these: read-out: hP2X3 IC50. As for the experimental part: (§1) Intracellular Calcium Measurement to Assess Antagonist Activity at Human P2X3 and Human P2X2/3 Receptors
(§2) A fluorescent imaging plate reader (FLEX/FLIPR station; Molecular Devices) was used to monitor intracellular calcium levels using the calcium-chelating dye Fluo-4 (Molecular Probes). […] Cells expressing purinergic receptors P2X3 (human) or P2X2/3 (human) were plated at a density of 15,000 cells/well in collagen-coated 384-well plates approximately 20 hours before beginning the assay. […] The test compound was added in a volume of 5 μl and allowed to incubate for 30 min at 37° C. The final assay DMSO concentration is 1%. The agonist, α,β-Me-ATP, was added in a volume of 20 μl at a concentration representing the EC80 value. The fluorescence was measured for an interval of 90 sec at 2 sec intervals and analyzed based on the increase in peak relative fluorescence units (RFU) compared to the basal fluorescence. Peak fluorescence was used to determine the response to agonist obtained at each concentration of test compound by the following equation: % Response=100*(RFU(test compound)−RFU(control)/RFU(DMSO)−RFU(control))
(§3) The Examples were tested in triplicates per plate and mean values were plotted in Excel XLFit to determine IC50 values at the human P2X3 and human P2X2/3 receptors, percentage of maximal inhibition and the Hill coefficients.
For orientation: Calcium flux is commonly read through the fluorescence of an indicator in the cells.

The target in assay [2] is human P2X2/3 receptor (Homo sapiens (Human), UniProt P56373+Q9UBL9). The experiment in a line: Intracellular calcium measurement (FLIPR, Fluo-4) of antagonist activity at human P2X2/3 receptors. It counts as cell-based. Here is the method:
as §1, §2, §3

Setting [3] is: human P2X3, FLIPR calcium assay, agonist α,β-Me-ATP.
The mark [4] stands for this setting: human P2X2/3, FLIPR calcium assay, agonist α,β-Me-ATP, read-out: hP2X2/3 IC50.

Read-outs that look alike come from different tables or passages of the source.

Sequence of human P2X2/3 receptor (P56373 whole entry): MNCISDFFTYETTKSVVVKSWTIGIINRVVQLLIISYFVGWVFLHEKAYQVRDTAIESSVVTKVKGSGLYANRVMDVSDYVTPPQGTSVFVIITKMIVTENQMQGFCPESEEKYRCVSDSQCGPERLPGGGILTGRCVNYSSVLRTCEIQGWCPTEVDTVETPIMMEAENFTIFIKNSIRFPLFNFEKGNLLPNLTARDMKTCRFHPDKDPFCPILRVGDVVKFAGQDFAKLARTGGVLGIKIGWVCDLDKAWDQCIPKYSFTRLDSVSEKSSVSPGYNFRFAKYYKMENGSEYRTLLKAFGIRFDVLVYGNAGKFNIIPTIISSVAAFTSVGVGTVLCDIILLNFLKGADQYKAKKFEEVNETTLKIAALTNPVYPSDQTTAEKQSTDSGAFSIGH
Sequence of human P2X2/3 receptor (Q9UBL9 whole entry): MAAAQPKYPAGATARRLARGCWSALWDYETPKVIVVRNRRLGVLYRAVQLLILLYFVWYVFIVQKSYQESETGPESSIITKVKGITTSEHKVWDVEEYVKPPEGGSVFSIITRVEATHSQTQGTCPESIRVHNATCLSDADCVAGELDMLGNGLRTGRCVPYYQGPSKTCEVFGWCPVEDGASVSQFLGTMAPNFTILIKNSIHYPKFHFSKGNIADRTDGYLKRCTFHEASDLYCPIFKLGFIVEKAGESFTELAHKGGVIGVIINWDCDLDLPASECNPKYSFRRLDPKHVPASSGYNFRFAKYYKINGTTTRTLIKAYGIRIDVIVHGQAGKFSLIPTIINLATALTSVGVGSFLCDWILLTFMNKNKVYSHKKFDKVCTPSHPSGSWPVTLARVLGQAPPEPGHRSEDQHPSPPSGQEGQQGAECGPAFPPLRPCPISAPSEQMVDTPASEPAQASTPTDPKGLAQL
Sequence of human P2X3 receptor (P56373 whole entry): as the sequence (P56373 whole entry) above

On to `CC[C@@H](NC(=O)c1cc(OC2COC2)cc(-c2ncc(C)s2)c1)c1cnc(C(F)(F)F)nc1` [Example 53, 3-(5-methyl-1,3-thiazol-2-yl)-5-(oxetan-3-yloxy)-N-{(1R)-1-[2-(trifluoromethyl)pyrimidin-5-yl]propyl}benzamide], for which the IC50 in assay [1] (setting [3]) was found to be 0.318 µM; in assay [2] (setting [4]) it was 2740 nM.

With `Cc1cnc(-c2cc(O[C@@H]3CCN(C)C3)cc(C(=O)N[C@H](C)c3cnc(C(F)(F)F)nc3)c2)s1` [Example 141, 3-{[(3R)-1-Methylpyrrolidin-3-yl]oxy}-5-(5-methyl-1,3-thiazol-2-yl)-N-{(1R)-1-[2-(trifluoromethyl)pyrimidin-5-yl]ethyl}benzamide], the IC50 in assay [1] (setting [3]) is 0.043 µM; in assay [2] (setting [4]), 2200 nM.

In the case of `Cc1ccc([C@@H](C)NC(=O)c2cc(OC[C@H]3CCOC3)cc(-c3ncc(Cl)s3)c2)nn1` [Example 316, 3-(5-chloro-1,3-thiazol-2-yl)-N-[(1R)-1-(6-methylpyridazin-3-yl)ethyl]-5-[(3S)-tetrahydrofuran-3-ylmethoxy]benzamide], the results for the IC50 in assay [1] and in assay [2] (setting [4]) were 0.021 µM and 250 nM, respectively.

On to `CCc1cnc(-c2cc(O[C@@H]3CN4CCC3CC4)cc(C(=O)N[C@H](C)c3cnc(C(F)(F)F)nc3)c2)s1` [Example 173, 3-[(3S)-1-azabicyclo[2.2.2]oct-3-yloxy]-5-(5-ethyl-1,3-thiazol-2-yl)-N-{(1R)-1-[2-(trifluoromethyl)pyrimidin-5-yl]ethyl}benzamide], for which the IC50 was 0.005 µM in assay [1] and 311 nM in assay [2] (hP2X2/3 IC50 (nM)).

Turning to `Cc1cnc(-c2cc(OC34CCN(CC3)CC4)cc(C(=O)N[C@H](C)c3cnc(C(F)(F)F)nc3)c2)s1` [Example 149], the IC50 in assay [1] (setting [3]) came out at 0.021 µM; in assay [2] (setting [4]) it was 936 nM.

Take `Cc1cnc(-c2cc(OC[C@H]3CN(C)C(=O)O3)cc(C(=O)N[C@H](C)c3cnc(C(F)(F)F)nc3)c2)s1` [Example 398, 3-{[(5R)-3-methyl-2-oxo-1,3-oxazolidin-5-yl]methoxy}-5-(5-methyl-1,3-thiazol-2-yl)-N-{(1R)-1-[2-(trifluoromethyl)pyrimidin-5-yl]ethyl}benzamide]: the IC50 was found to be 0.017 µM in assay [1] (setting [3]) and 1800 nM in assay [2] (setting [4]).

On to `Cc1ccc([C@@H](C)NC(=O)c2cc(O[C@H]3CCOC3)cc(-c3ncc(Cl)s3)c2)nn1` [Example 322, 3-(5-chloro-1,3-thiazol-2-yl)-N-[(1R)-1-(6-methylpyridazin-3-yl)ethyl]-5-[(3S)-tetrahydrofuran-3-yloxy]benzamide], for which the IC50 in assay [1] (setting [3]) was 0.049 µM; in assay [2] (setting [4]), 498 nM.

In the case of `Cc1cnc(-c2cc(OC[C@H]3CN(C)CCO3)cc(C(=O)N[C@@H](C)c3cnc(C(F)(F)F)nc3)c2)s1` [Example 416, 3-{[(2R)-4-methylmorpholin-2-yl]methoxy}-5-(5-methyl-1,3-thiazol-2-yl)-N-{(1S)-1-[2-(trifluoromethyl)pyrimidin-5-yl]ethyl}benzamide], the IC50 is 0.227 µM in assay [1] and at least 10000 nM in assay [2] (setting [4]).

For `Cc1cnc(-c2cc(O[C@@H]3CN4CCC3CC4)cc(C(=O)N[C@H](C)c3ccc(C(F)(F)F)nc3)c2)s1` [Example 175, 3-[(3S)-1-azabicyclo[2.2.2]oct-3-yloxy]-5-(5-methyl-1,3-thiazol-2-yl)-N-{(1R)-1-[6-(trifluoromethyl)pyridin-3-yl]ethyl}benzamide], the IC50 in assay [1] was 0.023 µM; in assay [2] (hP2X2/3 IC50 (nM)) it was 1270 nM.

In the case of `Cc1cnc(-c2cc(OC[C@@H]3COCCO3)cc(C(=O)N[C@H](C)c3cnc(C(F)(F)F)nc3)c2)s1` [Example 181, 3-[(2S)-1,4-dioxan-2-ylmethoxy]-5-(5-methyl-1,3-thiazol-2-yl)-N-{(1R)-1-[2-(trifluoromethyl)pyrimidin-5-yl]ethyl}benzamide], the IC50 in assay [1] (setting [3]) was found to be 0.019 µM; in assay [2] (setting [4]), 1180 nM.

Take `Cc1cnc(-c2cc(O[C@H]3CCN(C)C3)cc(C(=O)N[C@H](C)c3cnc(C(F)(F)F)nc3)c2)s1` [Example 142, 3-{[(3S)-1-Methylpyrrolidin-3-yl]oxy}-5-(5-methyl-1,3-thiazol-2-yl)-N-{(1R)-1-[2-(trifluoromethyl)pyrimidin-5-yl]ethyl}benzamide]: the IC50 in assay [1] (setting [3]) is 0.006 µM; in assay [2] (setting [4]), 222 nM.

The values above are taken from patent US10174016B2 (BAYER AKTIENGESELLSCHAFT, priority 2014, dated 2019).
